The text below walks through data of paper PMC5242325 (Antiviral therapy, 2015).

The conditions of data set [1]: female genital tract compared to BP; cited from earlier work.
Data set [2] can be described thus: Raltegravir pharmacokinetics in cervicovaginal fluid. The note with it: CVF, median (IQR); for AUC(0-t): AUC 0-12h.
Data set [3] can be described thus: Raltegravir pharmacokinetics in blood plasma. The settings on record: for AUC(0-t): AUC 0-12h; for AUC(0-t) / concentration at 12 h / Cmax: BP, median (IQR).
For data set [4] the following is noted: administration of a moderate fat meal; cited from earlier work.
Setting [5] is: female, human, in vivo, 400 mg, first dose, HIV-infected postmenopausal women (n=5).
Where [6] appears, read: female, human, in vivo, 400 mg, steady state, HIV-infected postmenopausal women (n=5).
Where [7] appears, read: female, human, in vivo, 400 mg, steady state, HIV-infected premenopausal women (n=6).
Where [8] appears, read: female, human, in vivo, 400 mg, C12, first dose, HIV-infected postmenopausal women (n=5).
Setting [9] is: female, human, in vivo, 400 mg, C12, steady state, HIV-infected postmenopausal women (n=5).
Setting [10] is: female, human, in vivo, 400 mg, C12, steady state, HIV-infected premenopausal women (n=6).
Where [11] appears, read: female, human, in vivo, 400 mg, Cmax, first dose, HIV-infected postmenopausal women (n=5).
The mark [12] stands for this setting: female, human, in vivo, 400 mg, Cmax, steady state, HIV-infected premenopausal women (n=6).

As usually defined, the AUC(0-t) is the area under the concentration-time curve up to a stated or last time point.

SMILES strings stand for the structures.

In the case of `C[C@@H]1CCO[C@H]2Cn3cc(C(=O)NCc4ccc(F)cc4F)c(=O)c(O)c3C(=O)N12` [dolutegravir], in data set [1], the “CVF:BP AUC ratio” value is 0.07.
As for `Cc1nnc(C(=O)NC(C)(C)c2nc(C(=O)NCc3ccc(F)cc3)c(O)c(=O)n2C)o1` [raltegravir], the AUC(0-t) in data set [2] (setting [5]) stood at 13800 ng·h/mL; in data set [2] (female, human, in vivo, 400 mg, first dose, HIV-negative premenopausal women (n=7), BLD imputed 0.1 ng/ml), 1720 ng·h/mL; in data set [2] (setting [6]), 9570 ng·h/mL; in data set [2] (setting [7]) it was 11500 ng·h/mL; in data set [2] (female, human, in vivo, 400 mg, steady state, HIV-negative premenopausal women (n=7), BLD imputed 0.1 ng/ml), 3160 ng·h/mL; in data set [3] (setting [5]), 4240 ng·h/mL. Also, the area under the curve AUC(0-t) in data set [3] (female, human, in vivo, 400 mg, first dose, HIV-negative premenopausal women (n=7)) was 3100 ng·h/mL; in data set [3] (setting [6]) it was 6180 ng·h/mL; in data set [3] (setting [7]), 5760 ng·h/mL; in data set [3] (female, human, in vivo, 400 mg, steady state, HIV-negative premenopausal women (n=7)) it was 8440 ng·h/mL. Moreover, the concentration at 12 h in data set [2] (setting [8]) came to 1290 ng/mL; in data set [2] (setting [9]) it was 958 ng/mL; in data set [2] (setting [10]), 447 ng/mL; in data set [3] (setting [8]), 222 ng/mL; in data set [3] (female, human, in vivo, 400 mg, C12, first dose, HIV-negative premenopausal women (n=7)) it was 54 ng/mL; in data set [3] (setting [9]) it was 310 ng/mL. The concentration at 12 h in data set [3] (setting [10]) was 23 ng/mL; in data set [3] (female, human, in vivo, 400 mg, C12, steady state, HIV-negative premenopausal women (n=7)), 303 ng/mL. In addition, the Cmax in data set [2] (setting [11]) was 4780 ng/mL; in data set [2] (setting [12]) it was 1920 ng/mL; in data set [2] (steady state, HIV-infected postmenopausal women (n=5)) it was 2841 (326-4430) ng/mL; in data set [3] (setting [11]), 1660 ng/mL; in data set [3] (female, human, in vivo, 400 mg, Cmax, first dose, HIV-negative premenopausal women (n=7)), 790 ng/mL; in data set [3] (female, human, in vivo, 400 mg, Cmax, steady state, HIV-infected postmenopausal women (n=5)), 1170 ng/mL. In addition, the Cmax in data set [3] (setting [12]) is 1980 ng/mL; in data set [3] (steady state, HIV-negative premenopausal women (n=7)), 1874 (587-2166) ng/mL. For the same molecule, in data set [3] (first dose, HIV-negative premenopausal and HIV-infected postmenopausal women), the “time after dosing by which all subjects had detectable concentrations in BP” value was at most 1 h. Moreover, the “increase in AUC” value in data set [4] is listed as 13%.
